Assay [1] has as its target T1, 5-hydroxytryptamine receptor 1A (Homo sapiens, UniProt P08908).
T1 sequence (P08908 whole entry): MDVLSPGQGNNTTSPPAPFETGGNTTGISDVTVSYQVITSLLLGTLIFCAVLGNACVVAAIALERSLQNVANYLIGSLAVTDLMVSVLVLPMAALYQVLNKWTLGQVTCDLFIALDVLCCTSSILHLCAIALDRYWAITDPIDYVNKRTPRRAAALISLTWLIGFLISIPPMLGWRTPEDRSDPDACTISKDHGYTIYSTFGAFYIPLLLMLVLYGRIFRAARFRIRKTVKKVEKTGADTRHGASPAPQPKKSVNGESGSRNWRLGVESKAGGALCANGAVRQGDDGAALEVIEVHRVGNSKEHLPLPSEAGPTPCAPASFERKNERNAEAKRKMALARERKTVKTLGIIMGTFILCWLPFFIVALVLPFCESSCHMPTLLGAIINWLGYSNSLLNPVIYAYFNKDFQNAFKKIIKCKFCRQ
The assay can be described thus: Binding affinity was determined towards 5-hydroxytryptamine 1A receptor using [3H]8-OH-DPAT as radioligand.

Assay [2] has as its target Sodium-dependent serotonin transporter (Rattus norvegicus) (UniProt P31652). The assay can be described thus: Inhibitory activity against serotonin [5-HT] reuptake site labeled with [3H]paroxetine as radioligand at 100 nM concentration.
The target in assay [3] is T1, 5-hydroxytryptamine receptor 1A. The assay can be described thus: Binding affinity towards 5-hydroxytryptamine 1A receptor using [3H]8-OH-DPAT as radioligand.
Assay [4] has as its target T2, 5-hydroxytryptamine receptor 1A (Homo sapiens) (UniProt P08908).
T2 sequence (whole entry): T1 sequence (P08908 whole entry)
The assay can be described thus: Maximal response as a result of 5-HT1A receptor-mediated stimulation of [35S]GTP-gamma-S, binding. Type of assay: functional. Background: GTPγS is a poorly hydrolysed GTP analogue; its binding reports G protein activation.

Assay [5] addresses T3, Sodium-dependent serotonin transporter (Rattus norvegicus, UniProt P31652). The assay can be described thus: Binding affinity towards Serotonin transporter labeled with [3H]paroxetine as radioligand.
In assay [6] the target is T2, 5-hydroxytryptamine receptor 1A (Homo sapiens). The experiment in a line: Maximal response as a result of 5-hydroxytryptamine 1A receptor-mediated stimulation of [35S]GTP-gamma-S, binding. The class given is functional.
The target of assay [7] is T3, Sodium-dependent serotonin transporter. The assay can be described thus: Binding affinity towards serotonin [5-HT] reuptake site labeled with [3H]paroxetine as radioligand.
In assay [8] the target is T2, 5-hydroxytryptamine receptor 1A (Homo sapiens). The assay can be described thus: Inhibitory activity against 5-hydroxytryptamine 1A receptor using [3H]-8-OH-DPAT as radioligand at 100 nM concentration.
The target of assay [9] is Sodium-dependent serotonin transporter (Rattus norvegicus) (UniProt P31652). The experiment in a line: Inhibitory activity against serotonin [5-HT] reuptake site labeled with [3H]-paroxetine as radioligand at 100 nM concentration.
Assay [10] concerns the target T1, 5-hydroxytryptamine receptor 1A. The experiment in a line: Binding affinity towards 5-HT1A receptor using [3H]8-OH-DPAT as radioligand.
For assay [11], the target named is Sodium-dependent serotonin transporter (Rattus norvegicus) (UniProt P31652). The assay can be described thus: Inhibitory activity against Serotonin transporter labeled with [3H]-paroxetine as radioligand at 100 nM concentration.

Bounds are passed on as bounds.

Sequence of Sodium-dependent serotonin transporter (Rattus norvegicus) (P31652 whole entry): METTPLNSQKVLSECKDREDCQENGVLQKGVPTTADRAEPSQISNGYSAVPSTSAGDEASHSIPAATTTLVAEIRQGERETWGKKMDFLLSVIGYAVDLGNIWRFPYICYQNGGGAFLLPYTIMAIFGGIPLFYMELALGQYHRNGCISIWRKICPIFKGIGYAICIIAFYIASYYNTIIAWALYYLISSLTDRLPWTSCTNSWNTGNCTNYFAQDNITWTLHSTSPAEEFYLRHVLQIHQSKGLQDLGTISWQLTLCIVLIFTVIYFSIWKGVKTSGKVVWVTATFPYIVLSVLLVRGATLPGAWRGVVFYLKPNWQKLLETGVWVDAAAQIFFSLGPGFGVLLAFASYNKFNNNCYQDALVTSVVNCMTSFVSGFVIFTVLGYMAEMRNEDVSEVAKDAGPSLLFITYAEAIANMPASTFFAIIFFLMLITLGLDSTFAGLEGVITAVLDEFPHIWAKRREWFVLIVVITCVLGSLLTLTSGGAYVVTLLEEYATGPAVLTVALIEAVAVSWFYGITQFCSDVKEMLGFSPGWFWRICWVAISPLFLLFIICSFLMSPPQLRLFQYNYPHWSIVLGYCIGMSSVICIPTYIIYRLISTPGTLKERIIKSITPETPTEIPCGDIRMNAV
T3 sequence (P31652 whole entry): as above

As usually defined, the Ki is a measure of affinity in units of concentration, obtained from inhibition or displacement. The low end stands for a stronger hold on the target, the high end for a looser hold on the target. As a reminder, the inhibition is the relative decrease from the control value, in per cent. Low readings indicate a response near the control, high ones a response far below the control. As for `Cc1ccc2cc(C3CCN(C[C@H](O)COc4cccc5[nH]c(C)cc45)CC3)sc2c1`, the affinity in assay [1] corresponds to a Ki of 22.6 nM. This compound also registered an inhibition in [2] of less than 50%.

What is called Emax is the size of the effect at its maximum, as opposed to the concentration needed. As to `COc1ccc2cc(C3CCN(C[C@H](O)COc4cccc5[nH]ccc45)CC3)sc2c1`, the figures for the Ki in assay [3] and in [5] were 3.13 nM and 68.7 nM, respectively. Moreover, the Emax in [4] stood at 4.92%.

Regarding `Cc1cc(C)c2cc(C3CCN(C[C@H](O)COc4cccc5[nH]c(C)cc45)CC3)sc2c1`, the Ki was determined as 27.8 nM in assay [1] and 52.1 nM in assay [7]. The Emax in [6] stood at 13.4%.

For `Cc1cc2c(OC[C@@H](O)CN3CCC(c4cc5c(C)cccc5s4)CC3)cccc2[nH]1`, the Ki in assay [1] was 10.4 nM; in assay [7], 17.4 nM. In assay [6], this compound showed an Emax of 12.1%.

Take `Cc1cc(C)c2cc(C3CCN(C[C@H](O)COc4cccc5[nH]ccc45)CC3)sc2c1`: the inhibition in assay [8] and in assay [9] was less than 50% in each case.

`COc1cccc2sc(C3CCN(C[C@H](O)COc4cccc5[nH]c(C)cc45)CC3)cc12`: the Ki was 4.83 nM in assay [1] and 51.2 nM in assay [7]. This compound registered an Emax in assay [6] of 9.05%.

Turning to `Cc1cc2c(OC[C@@H](O)CN3CCC(c4cc5cc(F)ccc5s4)CC3)cccc2[nH]1`, the Ki in assay [1] is 7.5 nM; in assay [7], 5.27 nM. The same compound had an Emax in [6] of 12.1%.

In the case of `Cc1cc2c(OC[C@@H](O)CN3CCC(c4cc5ccc(F)cc5s4)CC3)cccc2[nH]1`, the Ki in assay [1] turned out to be 15.3 nM; in assay [7] it was 11.3 nM. Also, the maximum response (Emax) in [6] was 12.6%.

Take `O[C@H](COc1cccc2[nH]ccc12)CN1CCC(c2cc3ccc(F)cc3s2)CC1`: the Ki in [1] was determined as 9.31 nM; in [7], 1.99 nM. This compound also yielded an Emax in assay [6] of 11.7%.

The compound `COc1ccc2sc(C3CCN(C[C@H](O)COc4cccc5[nH]ccc45)CC3)cc2c1` had a Ki in assay [10] of 1.44 nM. Besides, the inhibition in [11] was less than 50%.

For the compound `Oc1cccc2cc(C3CCN(C[C@H](O)COc4cccc5[nH]ccc45)CC3)sc12`, the Ki in assay [1] was 7.12 nM; in assay [7], 37.2 nM. The compound also gave an Emax in [6] of 12.5%.

As for `O[C@H](COc1cccc2[nH]ccc12)CN1CCC(c2cc3cc(F)ccc3s2)CC1`, the results for the Ki in assay [1] and in assay [7] were 29.4 nM and 11.8 nM, respectively. In addition, in assay [6], the Emax came out at 13.2%.

Regarding `Cc1cccc2sc(C3CCN(C[C@H](O)COc4cccc5[nH]ccc45)CC3)cc12`, the Ki in [1] was found to be 4.7 nM; in assay [7], 3.69 nM. The compound further yielded an Emax in assay [6] of 17%.

`Cc1c(C2CCN(C[C@H](O)COc3cccc4[nH]ccc34)CC2)sc2ccc(F)cc12` gave a Ki in assay [1] of 5.17 nM. Also, the inhibition in [2] is less than 50%.

As to `O[C@H](COc1cccc2[nH]ccc12)CN1CCC(c2cc3c(Cl)cccc3s2)CC1`, the Ki was determined as 9.12 nM in [1] and 15.6 nM in assay [7].

On to `COc1cccc2sc(C3CCN(C[C@H](O)COc4cccc5[nH]ccc45)CC3)cc12`, for which the Emax in [6] was 7.47%. The compound also had a Ki in assay [7] of 12.6 nM.

In the case of `Cc1ccc2cc(C3CCN(C[C@H](O)COc4cccc5[nH]ccc45)CC3)sc2c1`, the Ki in assay [1] came out at 12.7 nM; in assay [7], 50.5 nM. This compound displayed a maximal response (Emax) in assay [6] of 13.8%.

With `O[C@H](COc1cccc2[nH]ccc12)CN1CCC(c2cc3c(F)cccc3s2)CC1`, the Ki in assay [1] was found to be 6.79 nM; in assay [7], 15.9 nM. The Emax in [6] amounted to 11.2%.

Take `COc1cccc2cc(C3CCN(C[C@H](O)COc4cccc5[nH]ccc45)CC3)sc12`: the Ki in [3] was determined as 6.13 nM; in assay [5], 94.3 nM. In [4], the maximal response (Emax) worked out at 9.32%.

With `Cc1c(C2CCN(C[C@H](O)COc3cccc4[nH]ccc34)CC2)sc2ccccc12`, the Ki in [1] worked out at 6.28 nM; in assay [7], 24.1 nM.

Turning to `O[C@H](COc1cccc2[nH]ccc12)CN1CCC(c2cc3cc(Cl)ccc3s2)CC1`, the inhibition constant Ki came to 7.21 nM in [1] and 105 nM in assay [7]. Moreover, the Emax in [6] was determined as 11%.

For `O[C@H](COc1cccc2[nH]ccc12)CN1CCC(c2cc3ccccc3s2)CC1`, the Ki came to 3.7 nM in [1] and 16.7 nM in assay [7]. Also, in assay [6], the Emax came to 12.3%.

`Cc1cc2c(OC[C@@H](O)CN3CCC(c4cc5c(F)cccc5s4)CC3)cccc2[nH]1`: the figures for the Ki in [1] and in [7] were 14.1 nM and 34.2 nM, respectively. The compound also came in with an Emax in [6] of 11.6%.

Compound `CC(C)Oc1cccc2sc(C3CCN(C[C@H](O)COc4cccc5[nH]ccc45)CC3)cc12` had a Ki in assay [10] of 7.45 nM. This compound came in with an inhibition in assay [11] of less than 50%.

In assay [1], `Oc1ccc2cc(C3CCN(C[C@H](O)COc4cccc5[nH]ccc45)CC3)sc2c1` returned a Ki of 3.09 nM. Further, the inhibition in assay [2] is less than 50%.

`CC(C)Oc1ccc2cc(C3CCN(C[C@H](O)COc4cccc5[nH]ccc45)CC3)sc2c1`: in [3], the affinity corresponds to a Ki of 19.9 nM. For the same compound, the inhibition in assay [11] was less than 50%.

In the case of `O[C@H](COc1cccc2[nH]ccc12)CN1CCC(c2cc3ccc(Cl)cc3s2)CC1`, the Ki in [1] is 7.64 nM; in [7], 14 nM.

In assay [1], `COc1ccc2c(C)c(C3CCN(C[C@H](O)COc4cccc5[nH]ccc45)CC3)sc2c1` displayed a Ki of 6.07 nM. This compound displayed an inhibition in assay [9] of less than 50%.
